Measurements reported in BindingDB's records for doi:10.1124/jpet.301.3.1166 (University of North Carolina, 2002).
pKi: −log10 of the molar value. “And” between values parts separate entries of the source, which are not always exact repeats. Identical values can stand only once.

Experiments:
D(1A) dopamine receptor = D(1A) dopamine receptor (Rattus norvegicus, UniProt P18901)
D(2) dopamine receptor = D(2) dopamine receptor (Rattus norvegicus, UniProt P61169)
D(2) dopamine receptor, sequence (P61169 whole entry): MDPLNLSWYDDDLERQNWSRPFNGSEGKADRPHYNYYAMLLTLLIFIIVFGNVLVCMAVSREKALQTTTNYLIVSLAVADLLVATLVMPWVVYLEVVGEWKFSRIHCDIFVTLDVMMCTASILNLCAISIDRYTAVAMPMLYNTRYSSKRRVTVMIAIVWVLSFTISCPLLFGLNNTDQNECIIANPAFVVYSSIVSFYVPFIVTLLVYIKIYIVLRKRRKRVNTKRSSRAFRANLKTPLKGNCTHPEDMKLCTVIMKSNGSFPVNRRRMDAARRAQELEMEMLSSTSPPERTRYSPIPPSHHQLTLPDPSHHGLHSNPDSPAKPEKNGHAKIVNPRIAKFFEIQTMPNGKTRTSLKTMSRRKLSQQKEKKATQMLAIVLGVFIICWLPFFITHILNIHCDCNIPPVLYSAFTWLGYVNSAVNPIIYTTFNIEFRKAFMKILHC

D(1A) dopamine receptor, sequence (P18901 whole entry): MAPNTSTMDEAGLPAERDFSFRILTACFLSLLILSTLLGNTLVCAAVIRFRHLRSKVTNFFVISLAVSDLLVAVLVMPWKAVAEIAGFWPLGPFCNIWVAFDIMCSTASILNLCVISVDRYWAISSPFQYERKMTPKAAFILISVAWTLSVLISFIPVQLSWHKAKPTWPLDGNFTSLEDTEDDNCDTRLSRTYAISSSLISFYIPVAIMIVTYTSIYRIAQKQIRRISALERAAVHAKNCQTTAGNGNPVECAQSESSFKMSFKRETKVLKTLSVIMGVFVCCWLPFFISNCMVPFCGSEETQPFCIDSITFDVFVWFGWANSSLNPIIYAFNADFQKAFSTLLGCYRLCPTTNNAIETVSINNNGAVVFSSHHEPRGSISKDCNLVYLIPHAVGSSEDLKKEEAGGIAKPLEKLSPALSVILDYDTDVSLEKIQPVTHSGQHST

For CCCN1Cc2ccccc2[C@@H]2c3cc(O)c(O)cc3CC[C@H]21 [N-n-propyldihydrexidine, N-Pr-DHX], the pKi (D(1A) dopamine receptor) was 6.49 and the pKi (D(2) dopamine receptor) was 8.19 and 7.70.
